Patent publication US6503936B1 (priority 1998, dated 2003)
Read-outs that look alike come from different tables or passages of the source.

Tests used:
Phytophthora infestans [1] = type: in vivo; details: tomato leaves, 6 days after infection
Phytophthora infestans [2] = type: in vivo; details: tomato leaves, 6 days after infection; remark: listed apart in the source

## O=S(=O)([O-])[O-].[Cu+2].[Cu+2].[Cu+2].[Cu+2].[OH-].[OH-].[OH-].[OH-].[OH-].[OH-] [II.1, tribasic copper sulfate 3Cu(OH)2xCuSO4]
Phytophthora infestans [1]; 12.5 ppm active compound in the spray liquor
  Efficiency in % of the untreated control: 0%
Phytophthora infestans [1]; 25 ppm active compound in the spray liquor
  Efficiency in % of the untreated control: 0%
Phytophthora infestans [1]; 50 ppm active compound in the spray liquor
  Efficiency in % of the untreated control: 0%
Phytophthora infestans [1]; 100 ppm active compound in the spray liquor
  Efficiency in % of the untreated control: 10%
Phytophthora infestans [2]; Conc. 12.5 ppm
  Efficiency in % of the untreated control: 0%
Phytophthora infestans [2]; Conc. 25 ppm
  Efficiency in % of the untreated control: 8%
Phytophthora infestans [2]; Conc. 50 ppm
  Efficiency in % of the untreated control: 8%
Phytophthora infestans [2]; Conc. 100 ppm
  Efficiency in % of the untreated control: 8%
Phytophthora infestans [2]; Conc. 200 ppm
  Efficiency in % of the untreated control: 8%
